We go through nine compounds from PMC10981686, “Structural bases of inhibitory mechanism of CaV1.2 channel inhibitors” (Nature Communications, 2024).

For one assay, the target named is T1, CaV1.2^T1056Y (Homo sapiens, UniProt Q13936, T1056Y).
T1 construct: superfolder GFP (sfGFP) (C); Twin-Strep (C); expressed in transfected cells; host or cells: HEK293T
Kind of assay: whole-cell patch clamp inhibition curves in HEK293T cells, T1056Y mutant. In kind it is cell-based. The protocol: (§1) Whole-cell voltage-clamp recordings were carried out using human embryonic kidney 293 T (HEK293T) cells, which were cultured in Dulbecco’s Modified Eagle Medium (DMEM, Gibco) supplemented with 10% (v/v) fetal bovine serum (FBS, PAN-Biotech) at 37 °C supplemented with 5% CO2. Three distinct recombinant baculoviruses encoding CaV1.2, α2δ1, and β2 were used to coinfect HEK293T cells once they reached a confluence of 40–60%. After 8−12 h, transfected cells were re-plated on 8 × 8 mm coverslips, and sodium butyrate was added to the culture at a final concentration of 0.5−2.5 mM to improve protein expression. Whole-cell recordings of activation curves were performed from isolated GFP-positive HEK293T cells at 20−28 h after transfection with recombinant baculoviruses. […] Pipettes were pulled to obtain final resistances of 2−6 MΩ with a Sutter P-97 puller and heat-polished before employment. […] The series resistance was not compensated in these experiments. […] Signals were digitized at 10 kHz and low-pass filtered at 2 kHz. Data were analyzed with Clampfit 10.7.
(§2) To measure the inhibition curves, 2 μg endotoxin-free plasmids of wild-type (WT) or mutants generated by PCR expressing CaV1.2, α2δ1, and β2 were transiently transfected using 1.2 μg Lipofectamine 2000 Reagent (Thermo Fisher Scientific). For curves determining, re-plated cells were held at −100 mV, and then depolarized at +10 mV to elicit inward currents. To ensure stable currents during measurement, a series of traces were pre-recorded at a specific time interval without drug application for each construct. […] Perfusions applied using a gravity-driven system. […] Data analyses were performed using Origin 2022 (Origin Lab Corporation), GraphPad Prism 9 (GraphPad Software, Inc.) and Adobe illustrator 2018.
Background: Patch clamp records ionic current or voltage across a cell membrane.

The next assay has as its system T-type CaV channels. Particulars: cited from earlier work.
A further assay concerns N-type CaV channels. The conditions noted are these: cited from earlier work.
Another assay addresses T2, CaV1.2^Q1060F (Homo sapiens, UniProt Q13936, Q1060F).
T2 construct: superfolder GFP (sfGFP) (C); Twin-Strep (C); expressed in transfected cells; host or cells: HEK293T
Kind of assay: whole-cell patch clamp inhibition curves in HEK293T cells, Q1060F mutant. In kind it is cell-based. The protocol: as §1, §2

Assay [1] relates to L-type and T-type channels. Set-up: method as in earlier work. Particulars: result in words, 82 and references of Supplementary Table 2, cited from earlier work.
For another assay, the target named is T3, CaV1.2^Q1060M (Homo sapiens, UniProt Q13936, Q1060M).
T3 construct: superfolder GFP (sfGFP) (C); Twin-Strep (C); expressed in transfected cells; host or cells: HEK293T
Kind of assay: whole-cell patch clamp inhibition curves in HEK293T cells, Q1060M mutant. In kind it is cell-based. The protocol: as §1, §2

For assay [2], the target named is T4, CaV1.2^WT (human CaV1.2 with α2δ1 and β2) (Homo sapiens, UniProt Q13936).
T4 construct: superfolder GFP (sfGFP) (C); Twin-Strep (C); expressed in transfected cells; host or cells: HEK293T
Kind of assay: whole-cell patch clamp inhibition curves in HEK293T cells, wild-type CaV1.2. The assay is classed as cell-based. Particulars: for logIC50 (best-fit value): X values in μM. The protocol:
as §1, §2

In assay [3] the test system is CaV1.2 with substitutions at positions T1056 and Q1060. Set-up: method as in PMID 9006896. Particulars: result in words; cited from earlier work.
In a further assay the target is T5, CaV1.2^N741W (Homo sapiens, UniProt Q13936, N741W).
T5 construct: superfolder GFP (sfGFP) (C); Twin-Strep (C); expressed in transfected cells; host or cells: HEK293T
T5 sequence (Q13936 whole entry N741W): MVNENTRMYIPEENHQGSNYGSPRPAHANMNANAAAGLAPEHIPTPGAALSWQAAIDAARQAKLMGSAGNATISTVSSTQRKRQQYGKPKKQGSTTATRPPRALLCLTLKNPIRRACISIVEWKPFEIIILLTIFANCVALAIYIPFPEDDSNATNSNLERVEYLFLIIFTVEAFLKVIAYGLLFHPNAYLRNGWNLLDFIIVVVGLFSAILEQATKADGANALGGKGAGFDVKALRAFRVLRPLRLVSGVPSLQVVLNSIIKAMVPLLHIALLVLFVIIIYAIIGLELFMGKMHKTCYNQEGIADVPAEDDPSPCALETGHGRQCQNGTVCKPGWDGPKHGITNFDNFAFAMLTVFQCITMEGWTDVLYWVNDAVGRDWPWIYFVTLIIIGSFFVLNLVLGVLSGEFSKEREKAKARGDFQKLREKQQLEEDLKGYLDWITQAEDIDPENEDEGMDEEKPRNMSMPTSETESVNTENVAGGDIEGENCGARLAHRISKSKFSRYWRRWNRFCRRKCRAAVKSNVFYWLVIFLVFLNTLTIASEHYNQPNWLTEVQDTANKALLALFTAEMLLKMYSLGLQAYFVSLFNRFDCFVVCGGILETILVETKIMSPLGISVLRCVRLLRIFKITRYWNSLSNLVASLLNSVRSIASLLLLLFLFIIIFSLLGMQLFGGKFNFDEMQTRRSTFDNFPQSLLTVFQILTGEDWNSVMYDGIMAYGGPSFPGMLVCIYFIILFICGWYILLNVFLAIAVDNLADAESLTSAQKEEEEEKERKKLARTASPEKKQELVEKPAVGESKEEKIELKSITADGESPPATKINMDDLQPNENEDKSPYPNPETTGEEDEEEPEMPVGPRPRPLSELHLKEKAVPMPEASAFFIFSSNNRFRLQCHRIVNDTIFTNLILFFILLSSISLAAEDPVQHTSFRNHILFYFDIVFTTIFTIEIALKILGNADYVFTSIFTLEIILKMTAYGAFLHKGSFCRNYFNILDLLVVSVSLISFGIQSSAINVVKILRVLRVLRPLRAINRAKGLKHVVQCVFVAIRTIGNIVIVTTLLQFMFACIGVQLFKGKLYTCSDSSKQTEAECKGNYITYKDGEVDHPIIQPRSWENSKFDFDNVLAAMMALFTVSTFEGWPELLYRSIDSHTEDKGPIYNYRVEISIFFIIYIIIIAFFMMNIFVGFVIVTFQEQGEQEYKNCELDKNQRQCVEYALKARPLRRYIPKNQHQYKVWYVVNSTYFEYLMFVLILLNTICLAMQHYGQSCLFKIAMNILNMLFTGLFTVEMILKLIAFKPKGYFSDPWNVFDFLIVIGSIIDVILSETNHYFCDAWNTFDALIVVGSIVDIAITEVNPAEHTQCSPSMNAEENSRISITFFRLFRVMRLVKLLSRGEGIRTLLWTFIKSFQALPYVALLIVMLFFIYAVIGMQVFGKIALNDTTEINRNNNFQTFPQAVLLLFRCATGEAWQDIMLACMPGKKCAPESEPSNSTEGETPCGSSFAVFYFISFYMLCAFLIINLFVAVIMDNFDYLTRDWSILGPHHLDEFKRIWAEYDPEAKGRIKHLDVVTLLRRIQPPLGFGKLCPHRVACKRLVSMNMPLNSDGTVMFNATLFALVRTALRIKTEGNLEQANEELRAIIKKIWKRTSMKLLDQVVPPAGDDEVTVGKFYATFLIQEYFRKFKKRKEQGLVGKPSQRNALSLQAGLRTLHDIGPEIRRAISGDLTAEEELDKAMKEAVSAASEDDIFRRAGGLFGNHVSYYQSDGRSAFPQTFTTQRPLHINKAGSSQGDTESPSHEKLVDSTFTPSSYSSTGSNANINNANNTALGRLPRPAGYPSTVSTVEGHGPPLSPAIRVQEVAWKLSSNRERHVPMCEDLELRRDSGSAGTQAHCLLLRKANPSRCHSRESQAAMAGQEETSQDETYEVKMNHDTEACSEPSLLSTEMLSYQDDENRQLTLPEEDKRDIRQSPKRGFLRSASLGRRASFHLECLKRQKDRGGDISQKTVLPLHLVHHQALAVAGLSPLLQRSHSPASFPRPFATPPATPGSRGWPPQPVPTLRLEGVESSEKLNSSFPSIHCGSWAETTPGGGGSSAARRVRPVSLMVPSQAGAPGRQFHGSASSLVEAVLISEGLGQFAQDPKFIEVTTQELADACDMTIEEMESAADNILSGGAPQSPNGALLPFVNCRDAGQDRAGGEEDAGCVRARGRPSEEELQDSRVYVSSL
T5 sequence (P54289 25-946 partner limits assumed): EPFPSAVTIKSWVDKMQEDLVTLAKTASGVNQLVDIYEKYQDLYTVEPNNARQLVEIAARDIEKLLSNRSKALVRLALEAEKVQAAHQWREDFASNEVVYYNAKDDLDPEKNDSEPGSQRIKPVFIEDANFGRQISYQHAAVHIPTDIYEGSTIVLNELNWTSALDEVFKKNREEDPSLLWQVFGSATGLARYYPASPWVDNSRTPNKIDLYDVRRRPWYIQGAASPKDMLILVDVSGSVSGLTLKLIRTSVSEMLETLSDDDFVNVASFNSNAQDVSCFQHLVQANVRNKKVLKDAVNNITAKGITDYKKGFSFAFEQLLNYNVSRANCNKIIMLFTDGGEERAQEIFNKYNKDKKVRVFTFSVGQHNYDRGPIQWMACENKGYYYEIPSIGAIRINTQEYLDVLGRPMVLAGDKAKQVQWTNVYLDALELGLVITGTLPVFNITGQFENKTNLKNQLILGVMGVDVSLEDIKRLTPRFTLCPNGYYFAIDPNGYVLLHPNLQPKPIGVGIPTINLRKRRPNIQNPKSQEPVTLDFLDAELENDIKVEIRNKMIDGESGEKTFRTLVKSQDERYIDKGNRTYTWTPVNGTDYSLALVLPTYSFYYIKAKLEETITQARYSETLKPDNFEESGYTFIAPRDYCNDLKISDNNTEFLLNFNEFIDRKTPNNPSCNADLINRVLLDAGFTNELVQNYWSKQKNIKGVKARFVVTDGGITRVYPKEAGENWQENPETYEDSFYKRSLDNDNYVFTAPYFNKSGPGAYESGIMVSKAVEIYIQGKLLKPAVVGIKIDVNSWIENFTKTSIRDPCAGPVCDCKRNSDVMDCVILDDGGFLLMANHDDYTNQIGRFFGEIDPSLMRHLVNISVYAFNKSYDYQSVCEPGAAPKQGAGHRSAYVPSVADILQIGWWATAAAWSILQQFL
T5 sequence (P54289 947-1103 partner limits assumed): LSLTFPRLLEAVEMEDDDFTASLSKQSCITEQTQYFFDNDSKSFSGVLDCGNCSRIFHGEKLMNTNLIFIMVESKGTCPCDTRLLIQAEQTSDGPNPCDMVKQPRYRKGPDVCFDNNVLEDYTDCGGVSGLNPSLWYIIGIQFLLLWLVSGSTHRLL
T5 sequence (Q08289 1-606 isoform Q08289-3 partner): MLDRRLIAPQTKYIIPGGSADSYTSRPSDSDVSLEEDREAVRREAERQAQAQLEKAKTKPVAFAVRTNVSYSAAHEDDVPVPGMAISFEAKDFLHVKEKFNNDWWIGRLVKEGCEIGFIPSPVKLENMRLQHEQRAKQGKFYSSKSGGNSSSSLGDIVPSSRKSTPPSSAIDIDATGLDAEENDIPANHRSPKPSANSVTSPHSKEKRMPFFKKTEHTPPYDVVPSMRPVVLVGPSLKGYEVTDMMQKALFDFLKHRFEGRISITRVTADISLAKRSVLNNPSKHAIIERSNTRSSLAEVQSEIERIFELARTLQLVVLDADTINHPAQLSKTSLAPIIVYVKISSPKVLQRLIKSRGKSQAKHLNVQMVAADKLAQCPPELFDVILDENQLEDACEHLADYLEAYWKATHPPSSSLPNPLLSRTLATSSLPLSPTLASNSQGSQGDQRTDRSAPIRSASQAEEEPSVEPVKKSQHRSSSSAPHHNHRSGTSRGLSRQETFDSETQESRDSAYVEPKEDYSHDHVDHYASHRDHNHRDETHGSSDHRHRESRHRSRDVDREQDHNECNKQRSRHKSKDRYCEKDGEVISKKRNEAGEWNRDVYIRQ
Kind of assay: whole-cell patch clamp inhibition curves in HEK293T cells, N741W mutant. In kind it is cell-based. The protocol:
as §1, §2

Another assay addresses T6, CaV1.2^N1179W (Homo sapiens, UniProt Q13936, N1179W).
T6 construct: superfolder GFP (sfGFP) (C); Twin-Strep (C); expressed in transfected cells; host or cells: HEK293T
Kind of assay: whole-cell patch clamp inhibition curves in HEK293T cells, N1179W mutant. The assay is classed as cell-based. The protocol:
as §1, §2

“And” between values parts separate entries of the source, which are not always exact repeats. Identical values can stand only once. Like-named read-outs stand apart in the source and are kept apart here. Where only a bound is given, the exact number is not on record here.

T2 sequence (Q13936 whole entry Q1060F): as the sequence (Q13936 whole entry N741W) above, with W741N, Q1060F counted along it
T2 sequence (P54289 25-946 partner limits assumed): as the sequence (P54289 25-946 partner limits assumed) above
T2 sequence (P54289 947-1103 partner limits assumed): as the sequence (P54289 947-1103 partner limits assumed) above
T2 sequence (Q08289 1-606 isoform Q08289-3 partner): as the sequence (Q08289 1-606 isoform Q08289-3 partner) above

In general, IC50 refers to the concentration at which inhibition is half-maximal. Turning to `COC(=O)C1=C(C)NC(C)=C(C(=O)OC2CCCN(Cc3ccccc3)C2)C1c1cccc([N+](=O)[O-])c1` (stereo not drawn) [benidipine], the remaining activity at 0.01 µM stood at 99.8% on CaV1.2^T1056Y (HEK-293T, benidipine 0.01 μM, T1056Y, single experiments, Supplementary Fig. 7c source data, read-out: normalized current (I/Imax)); 93.9% on CaV1.2^Q1060F (HEK-293T, benidipine 0.01 μM, Q1060F, single experiments, Supplementary Fig. 7c source data, read-out: normalized current (I/Imax)); 97% at CaV1.2^Q1060M (HEK-293T, benidipine 0.01 μM, Q1060M, single experiments, Supplementary Fig. 7c source data, read-out: normalized current (I/Imax)); 91% in [2] (HEK-293T, benidipine 0.01 μM, WT, single experiments, Supplementary Fig. 7c source data, read-out: normalized current (I/Imax)). The remaining activity at 0.1 µM at CaV1.2^T1056Y (HEK-293T, benidipine 0.1 μM, T1056Y, single experiments, Supplementary Fig. 7c source data, read-out: normalized current (I/Imax)) came out at 91.4%; at CaV1.2^Q1060F (HEK-293T, benidipine 0.1 μM, Q1060F, single experiments, Supplementary Fig. 7c source data, read-out: normalized current (I/Imax)), 88.2%; on CaV1.2^Q1060M (HEK-293T, benidipine 0.1 μM, Q1060M, single experiments, Supplementary Fig. 7c source data, read-out: normalized current (I/Imax)), 88.7%. Moreover, the remaining activity at 1 µM on CaV1.2^T1056Y (HEK-293T, benidipine 1 μM, T1056Y, single experiments, Supplementary Fig. 7c source data, read-out: normalized current (I/Imax)) came out at 85.3%; on CaV1.2^Q1060F (HEK-293T, benidipine 1 μM, Q1060F, single experiments, Supplementary Fig. 7c source data, read-out: normalized current (I/Imax)), 81.9%; at CaV1.2^Q1060M (HEK-293T, benidipine 1 μM, Q1060M, single experiments, Supplementary Fig. 7c source data, read-out: normalized current (I/Imax)) it was 73.2%; in assay [2] (HEK-293T, benidipine 1 μM, WT, single experiments, Supplementary Fig. 7c source data, read-out: normalized current (I/Imax)), 27.4%. The remaining activity at 10 µM on CaV1.2^T1056Y (HEK-293T, benidipine 10 μM, T1056Y, single experiments, Supplementary Fig. 7c source data, read-out: normalized current (I/Imax)) is 67.2%; on CaV1.2^Q1060M (HEK-293T, benidipine 10 μM, Q1060M, single experiments, Supplementary Fig. 7c source data, read-out: normalized current (I/Imax)) it was 46.7%. The “HillSlope (best-fit value)” value at CaV1.2^T1056Y (benidipine, T1056Y) is recorded as -0.3204; at CaV1.2^Q1060F (benidipine, Q1060F), -0.3921; on CaV1.2^Q1060M (benidipine, Q1060M), -0.4107; in [2] (benidipine, WT), -0.5499. Moreover, the “logIC50 (best-fit value)” value is on record as 2.427 on CaV1.2^T1056Y (benidipine, T1056Y, X values in μM); 1.07 at CaV1.2^Q1060F (benidipine, Q1060F, X values in μM); 0.8728 on CaV1.2^Q1060M (benidipine, Q1060M, X values in μM); -0.6638 in assay [2] (benidipine, WT). For the same compound, the IC50 is greater than 100 µM against CaV1.2^T1056Y (held at -100 mV, depolarized at +10 mV every 1 min, n = 4); 11 µM and ~11 µM in the assay on T-type CaV channels; roughly 35 µM in the assay with N-type CaV channels; 11.7 µM against CaV1.2^Q1060F (IC50 of benidipine on CaV1.2^Q1060F, held at -100 mV, depolarized at +10 mV every 1 min, n = 4); 11.7 µM at CaV1.2^Q1060F (benidipine, Q1060F, variable slope fit, X values in μM per sheet Supplementary Figure 7c, read-out: IC50 (best-fit value)); 7.5 µM against CaV1.2^Q1060M (IC50 of benidipine on CaV1.2^Q1060M, held at -100 mV, depolarized at +10 mV every 1 min, n = 4). At CaV1.2^Q1060M (benidipine, Q1060M, variable slope fit, X values in μM per sheet Supplementary Figure 7c, read-out: IC50 (best-fit value)), the IC50 was 7.46 µM. For the same compound, the “selectivity class for L-type and T-type channels” value (from here on “selectivity class”) in assay [1] was “L/T-type selective”; in assay [1] (listed as Benidipine), “non-selective”. For the same compound, the remaining activity at 100 µM on CaV1.2^Q1060M (HEK-293T, benidipine 100 μM, Q1060M, single experiments, Supplementary Fig. 7c source data, read-out: normalized current (I/Imax)) was 20.1%. In addition, the CaV1.2 current reduction in assay [2] (benidipine 100 μM) is 90%.
Regarding `CC1=C(C(=O)OC(C)C)[C@@H](c2cccc3nonc23)C([N+](=O)[O-])=C(C)N1` [R202-791], in assay [3], the “effect of substitutions at T1056 and Q1060 on sensitivity of CaV1.2 to the drug” value is listed as “almost abolished the sensitivity”.
Turning to `COC(=O)C1=C(C)NC(C)=C(C(=O)OC)C1c1ccccc1[N+](=O)[O-]` [nifedipine], the “sensitivity of T-type CaV channels” value in the assay on T-type CaV channels (result in words) is given as “no sensitivity”. The “sensitivity of N-type CaV channels” value in the assay with N-type CaV channels (result in words) is recorded as “no sensitivity”. The “selectivity class” value in assay [1] was “L-type selective”.
Take `COc1ccc2cc1Oc1ccc(cc1)C[C@H]1c3cc(c(OC)cc3CCN1C)Oc1c(OC)c(OC)cc3c1[C@H](C2)N(C)CC3` [tetrandrine]: the remaining activity at 0.001 µM was found to be 90.1% on CaV1.2^N741W (HEK-293T, tetrandrine 0.001 μM, N741W, single experiments, Fig. 3f source data, read-out: normalized current (I/Imax)); 86.3% on CaV1.2^N1179W (HEK-293T, tetrandrine 0.001 μM, N1179W, single experiments, Fig. 3f source data, read-out: normalized current (I/Imax)); 84.9% in assay [2] (HEK-293T, tetrandrine 0.001 μM, WT, single experiments, Fig. 3f source data, read-out: normalized current (I/Imax)). The remaining activity at 0.1 µM at CaV1.2^N741W (HEK-293T, tetrandrine 0.1 μM, N741W, single experiments, Fig. 3f source data, read-out: normalized current (I/Imax)) was found to be 49.4%. Further, the remaining activity at 10 µM at CaV1.2^N741W (HEK-293T, tetrandrine 10 μM, N741W, single experiments, Fig. 3f source data, read-out: normalized current (I/Imax)) worked out at 22.8%. Besides, the IC50 is 0.0713 µM on CaV1.2^N741W (IC50 of tetrandrine on CaV1.2^N741W, held at -100 mV, depolarized at +10 mV every 20 s, n = 10); 0.0712 µM at CaV1.2^N741W (tetrandrine, N741W, variable slope fit, bottom 0, top 1, X values in μM per sheet Figure 3f, read-out: IC50 (best-fit value)); 0.0418 µM against CaV1.2^N1179W (held at -100 mV, depolarized at +10 mV every 20 s, n = 10); ~0.0142 µM and 0.0142 µM in assay [2] (IC50 of tetrandrine on CaV1.2^WT, held at -100 mV, depolarized at +10 mV every 20 s, n = 10). The “HillSlope (best-fit value)” value is -0.3074 at CaV1.2^N741W (tetrandrine, N741W); -0.3696 on CaV1.2^N1179W (tetrandrine, N1179W); -0.4914 in [2] (tetrandrine, WT). In addition, the “logIC50 (best-fit value)” value is -1.147 on CaV1.2^N741W (tetrandrine, N741W, X values in μM); -1.379 on CaV1.2^N1179W (tetrandrine, N1179W, X values in μM); -1.849 in [2] (tetrandrine, WT). Further, in assay [2] (tetrandrine 10 μM), the CaV1.2 current reduction was found to be 90%.
As for `COCCOC(=O)C1=C(C)NC(C)=C(C(=O)OC/C=C/c2ccccc2)C1c1cccc([N+](=O)[O-])c1` (stereo not drawn) [cilnidipine, Cilnidipine], the “inhibition of T-type channels” value in the assay on T-type CaV channels (result in words) is “cannot inhibit T-type channels”. Also, in assay [1], the “selectivity class” value was “L-type selective”.
In the case of `COCCOC(=O)C1=C(C)NC(C)=C(C(=O)OC(C)C)C1c1cccc([N+](=O)[O-])c1` (stereo not drawn) [nimodipine, Nimodipine], in the assay on T-type CaV channels (CaV3.1, CaV3.2, CaV3.3), the “preference among T-type channels” value was “preference for inhibiting CaV3.2 and CaV3.3 over CaV3.1”. In [1], the “selectivity class” value is given as “non-selective”.
Consider `CCOC(=O)C1=C(C)NC(C)=C(C(=O)OC)C1c1cccc([N+](=O)[O-])c1` (stereo not drawn) [nitrendipine, Nitrendipine], for which the “selectivity class” value in [1] was “L-type selective”.
As for `COC(=O)C1=C(C)NC(C)=C(C(=O)OCCN2CCN(C(c3ccccc3)c3ccccc3)CC2)C1c1cccc([N+](=O)[O-])c1` (stereo not drawn) [manidipine, Manidipine], the “selectivity class” value in [1] is “L/T-type selective”; in assay [1] (listed as Manidipine) it was “non-selective”.
For `CCOC(=O)C1=C(C)NC(C)=C(C(=O)OC)C1c1cccc(Cl)c1Cl` (stereo not drawn) [felodipine, Felodipine], the “selectivity class” value in assay [1] is “L-type selective”.
